Source: patent publication US4816490A, “Novel therapeutic use of a derivative of indane dione and the pharmaceutical compositions intended for this use” (priority 1987, dated 1989)

What was measured:
[1] = system: male and female mice of Swiss strain; assay: Acute toxicity after single intraperitoneal administration; type: in vivo; details: IP
Source text: (§1) Male and female mice of Swiss strain weighing from 22 to 25 g of body weight were free of pathogen specific organisms (EOPS), stemming from breeding CERJ (53860 LE GENEST (France) and acclimated for at least 8 days in the animalry of the firm.
(§2) Except where stipulated to the contrary, in the tables giving the results, 10 animals of the same sex for each dose were housed in cages of MAKROLON (Safi) of 40 cm by 25 cm filled with shaving of wood. Standard feeding for rats and mice, tablets UAR and tap water ad libitum.
(§3) The compounds were administered without previous fasting either orally (gastric tubing using a metallic oesophageous sonde) at a rate of 0.5 ml or 1 ml per 20 g of body weight of an aqueous suspension of the test compound in a 3% solution of arabic gum, or intraperitoneally at a rate of 0.5 ml or 1 ml per 20 g of body weight of the test compound suspended in an isotonic saline solution containing 3% of arabic gum.
(§4) For 6 days after the single administration and then every day for 15 days.
(§5) When necessary, the mean lethal doses (LD 50) were calculated by the method of Behrens and Karber (BK) and Miller and Tainter (MT). The latter allowing to supply with, for the threshold of probability P=0.05 a limit of confidence for the LD 50. Further calculated were the LDo i.e. DMT=maximal doses always tolerated and the LD100 i.e. DMM=minimal doses always lethal.

[2] = system: male and female mice of Swiss strain; assay: Acute toxicity after single oral administration; type: in vivo; details: for Deaths / toxic symptoms: single dose 10 g/kg
Source text: as §1, §2, §3, §4, §5
The compound was administered in a single dose to batches of 10 male or female mice weighing […] at a rate of 1 ml per 20 g of body weight.

[3] = system: hyperlipidaemia / atheroma in Wistar rats on atheromatogenous regimen; assay: Biochemical testings in rats on atheromatogenous (cholesterol-rich) diet, including atheroma risk ratios; type: in vivo, rat
Source text: (§6) The method utilized for the test was that, slightly altered of Aubert D. Feraud J. C., Lacaze B., Pepino., Ponak E. et Podesta M. as described in Atherosclerosis, Vol. 20 (1974), p. 263-280 (Experimental Atherogenesis in the Wistar Rat).
(§7) Female rats of Wistar strain, free of specific pathogenic germs (EOPS) stemming from the breeding EVIC-CEBA
Mean body weight: 160-180 g at the start of the test
(§8) Diet: standard tablets UAE AO 3 enriched in cholesterol (0.5%) and in cholic acid (0.5).
15 animals per each batch and by cage in MACROLON (Safi) of 59 cm×38 cm, 5 cm filled with a litter of shavings of wood.
(§9) Diet of the animals: the animals were given the atheromatogenous regimen then while maintaining the same regimen, they were given for 4 days 250,000 IU/kg of vitamin D2 dissolved in olive oil (Sterogyl 15H). The compounds to be tested were given thereafter for 4 weeks immediately after the termination of the atheromatogenous regimen.
At the end of these studies the following tests were performed on all surviving animals.
Esterified blood cholesterol
Cholesterol in LDL (estimate)
The total score for each product was obtained by adding each individual scores and allowed the following classification
The protection against the atheromatogenous risk was evaluated using the following ratios: […]

[4] = system: atheromatous deposits of the aorta, Wistar rats; assay: Macroscopic examination of aorta atheroma in rats on atheromatogenous diet; type: in vivo, rat
Source text: as §6, §8
After the studies, all the animals were sacrificed by subtotal puncture of the blood in the abdominal aorta after anesthesia by intravenous sodium Pentobarbital. The hearts, livers, aortas on which the score of atheroma was determined were taken. For this purpose, the aortas were longitudinally cut, then spread to allow a whole insight of the endothelial coating from the aortic valves until the branching of the coeliac stem (lower portion of the thoracic aorta).
Aorta was from an anatomic point of view divided into two parts:
Zone 1: aortic valves-first intercostal arters
Zone 2: first intercostal arters and branching of the coeliac stem
The intensity of the atheromatous deposits was determined according to the following scores:
Score 1: Discrete (<1 mm) and few deposit
Score 2: Numerous and discrete deposits
Score 3: Numerous and marked deposits (<1 mm)
Score 4: Very marked deposits or very numerous deposits but letting some uninfiltrated areas
Score 5: Deposits on the whole epithelium
Two parameters were considered:
the intensity of the observed damages determined according to the previously-given scores.

[5] = system: female rats of Wistar strain; assay: Tolerance, mortality and body weight in the rat atheroma study; details: 100 mg/kg
Source text: as §7, §9
The behavior and the changes in weight of the animals were surveyed every day as well as by weekly weighing.

[6] = Anti-inflammatory / analgesic activity; type: in vivo; details: doses lower than previously disclosed
Description: The said 2-[(3,4-dimethoxy-benzoyl)-methyl]-2-hydroxy-1,3-dioxo-Indane has been used in the French patent at a dose of 250 mg/kg to induce an anti-inflammatory threshold effect. Consequently, the dosology disclosed in the French patent for the use in human therapy shall range from 400 to 1200 mg daily.

[7] = system: atheroma / hyperlipidaemia in Wistar rats on atheromatogenous regimen; assay: Overall hypolipaemiant and anti-atheromatous classification (summarized scores); type: in vivo, rat; details: 100 mg/kg
Source text: as §6, §7, §8, §9

[8] = Anti-lipaemiant activity (general statement); type: in vivo; details: read-out: Dose from which a clear anti-lipaemiant activity is shown
[9] = French patent 2,382,424; cited from earlier work
[10] = same doses, cholesterol-rich diet

Question: Which Symptoms after injection [1] does the source give for `COc1ccc(C(=O)CC2(O)C(=O)c3ccccc3C2=O)cc1OC` [Compound of the invention, 2-[(3,4-dimethoxy-benzoyl)-methyl]-2-hydroxy-1,3-dioxo Indane] here?
Answer: crawling after the injection then a protracted prostation took place with piloerection and bradypnea cyanosis

Question: And the “Mortality in 10 mice” value ([1]; 2000 mg/kg, females)?
Answer: 0

Question: And the “Mortality in 10 mice” value ([1]; 2000 mg/kg, males)?
Answer: 0

Question: And the “Mortality in 10 mice” value ([1]; 2500 mg/kg, females)?
Answer: 1

Question: And the “Mortality in 10 mice” value ([1]; 2500 mg/kg, males)?
Answer: 1

Question: What about the “Mortality in 10 mice” value ([1]; 3000 mg/kg, females) of the same compound?
Answer: 6

Question: What about the “Mortality in 10 mice” value ([1]; 3000 mg/kg, males) of the same compound?
Answer: 3

Question: What about the Late mortalities ([1]; 3 to 4 g/kg, after 5 to 7 days) of the same compound?
Answer: generally 1 death per dose for each sex

Question: And the “Mortality in 10 mice” value ([1]; 3500 mg/kg, females)?
Answer: 8

Question: And the “Mortality in 10 mice” value ([1]; 3500 mg/kg, males)?
Answer: 5

Question: What about the “Mortality in 10 mice” value ([1]; 4000 mg/kg, females) of the same compound?
Answer: 10

Question: What about the “Mortality in 10 mice” value ([1]; 4000 mg/kg, males) of the same compound?
Answer: 8

Question: What about the “Mortality in 10 mice” value ([1]; 4500 mg/kg, females) of the same compound?
Answer: 10

Question: And the “Mortality in 10 mice” value ([1]; 4500 mg/kg, males)?
Answer: 10

Question: And the “Mortality in 10 mice” value ([1]; 5000 mg/kg, females)?
Answer: 10

Question: What about the “Mortality in 10 mice” value ([1]; 5000 mg/kg, males) of the same compound?
Answer: 10

Question: And the “LD100 (minimal dose always lethal)” value ([1]; female mice)?
Answer: 4000 mg/kg

Question: What about the “LDo (maximal dose always tolerated)” value ([1]; female mice) of the same compound?
Answer: 2000 mg/kg

Question: And the “LD100 (minimal dose always lethal)” value ([1]; male mice)?
Answer: 4500 mg/kg

Question: What about the “LDo (maximal dose always tolerated)” value ([1]; male mice) of the same compound?
Answer: 2000 mg/kg

Question: And the “Toxicity in comparison with Clofibrate” value ([1]; single administration)?
Answer: markedly less toxic than Clofibrate

Question: What about the Toxicity ([2]; general statement) of the same compound?
Answer: very low toxicity

Question: What about the LD100 ([2]; oral, male or female mice) of the same compound?
Answer: > 10000 mg/kg

Question: And the LDo ([2]; oral, male or female mice)?
Answer: 10000 mg/kg

Question: And the “Deaths / toxic symptoms” value ([2]; oral, male or female mice)?
Answer: no toxicity even at a dose of 10 g/kg

Question: What about the “Deaths / toxic symptoms” value ([2]; oral, male or female mice, listed as test compound) of the same compound?
Answer: no deaths nor toxic symptoms appeared

Question: What about the “Toxicity in comparison with Clofibrate” value ([2]; single administration, orally or parenterally) of the same compound?
Answer: less toxic than Clofibrate

Question: And the “Cholesterol in LDL / Cholesterol in HDL, % in comparison with Controls-Diet” value ([3]; 100 mg/kg)?
Answer: -36.10%

Question: What about the “Total Blood Cholesterol / Cholesterol in HDL, % in comparison with Controls-Diet” value ([3]; 100 mg/kg) of the same compound?
Answer: -33.22%

Question: What about the “Cholesterol in HDL, variation in comparison to controls-Diet” value ([3]; 100 mg/kg, 4 weeks) of the same compound?
Answer: -33.33%

Question: What about the “Esterified cholesterol, variation in comparison to controls-Diet” value ([3]; 100 mg/kg, 4 weeks) of the same compound?
Answer: -57.70%

Question: And the “Total Blood lipids, variation in comparison to controls-Diet” value ([3]; 100 mg/kg, 4 weeks)?
Answer: -48.47%

Question: What about the “Total blood cholesterol, variation in comparison to controls-Diet” value ([3]; 100 mg/kg, 4 weeks) of the same compound?
Answer: -55.47%

Question: What about the “Triglycerids, variation in comparison to controls-Diet” value ([3]; 100 mg/kg, 4 weeks) of the same compound?
Answer: -25.86%

Question: And the “Cholesterol in LDL, variation in comparison to controls-Diet” value ([3]; 100 mg/kg, 4 weeks, LDL (estimate))?
Answer: -57.41%

Question: What about the “Atheromatous risk total score” value ([3]; 100 mg/kg, listed as Compound according to this invention) of the same compound?
Answer: 0.90

Question: What about the “Atheromatous risk total score” value ([3]; 100 mg/kg, listed as Compound of this invention) of the same compound?
Answer: 0.90

Question: And the “Activity on the biochemical level vs Clofibrate” value [3, 10]?
Answer: as active as Clofibrate on the biochemical level

Question: What about the “Macroscopical examination total score” value ([4]; 100 mg/kg) of the same compound?
Answer: 2.57

Question: What about the “Damaged animals, % of decrease in comparison with Controls-Diet” value ([4]; 100 mg/kg, macroscopical) of the same compound?
Answer: -30.77%

Question: What about the “Damaged animals, percentage” value ([4]; 100 mg/kg, macroscopical) of the same compound?
Answer: 69.23%

Question: And the “Damaged animals, score in relation to Clofibrate” value ([4]; 100 mg/kg, macroscopical)?
Answer: 1.69

Question: What about the “Intensity of the damages, % of decrease in comparison with Controls-Diet” value ([4]; 100 mg/kg, macroscopical) of the same compound?
Answer: -22.68%

Question: What about the “Intensity of the damages, score in relation to Clofibrate” value ([4]; 100 mg/kg, macroscopical) of the same compound?
Answer: 0.88

Question: What about the “Frequency of macroscopic damages” value ([4]; cholesterol-rich diet) of the same compound?
Answer: a lower frequency of macroscopic damages

Question: What about the “Intensity of observed damages” value ([4]; cholesterol-rich diet) of the same compound?
Answer: a lower intensity of the observed damages

Question: And the “Activity on macroscopic damages vs Clofibrate” value [4, 10]?
Answer: more active when evaluating the macroscopic damages

Question: And the “Mortality compared with batch No. 2 (2/15)” value ([5]; 4 weeks, atheromatogenous regimen)?
Answer: did not increase it

Question: And the “Tolerance compared with Clofibrate” value ([5]; rat, in vivo)?
Answer: better tolerated

Question: And the “Anti-inflammatory or analgesic properties at the antilipaemiant doses” value [6]?
Answer: does not show anti-inflammatory or analgesic properties

Question: What about the “Classification of the anti-atheromatous action” value [7] of the same compound?
Answer: Compound of the invention>Fenofibrate>Clofibrate

Question: And the “Hypolipaemiant and anti-atheromatous activity” value [7]?
Answer: marked hypolipaemiant and anti-atheromatous activity, very close to Clofibrate (100 mg/kg) and far better than those of Fenclofibrate (100 mg/kg)

Question: And the minimal effective dose [8]?
Answer: ≥ 100 mg/kg

Question: And the “Dose inducing an anti-inflammatory threshold effect” value [9]?
Answer: 250 mg/kg
